Biological target: Recombinant human LTC4 synthase (Homo sapiens (Human), UniProt Q16873)
Assay: In vitro hLTC4 synthase enzyme assay (Test A)
Assay type: biochemical
Settings: Test A (Examples 1-61); substrate LTA4, LTC4 detected by HTRF; median of at least two determinations
Procedure: In Vitro hLTC4 Synthase Enzyme Assay (Test A)
Recombinant human LTC4 synthase is expressed in Piccia pastoralis and the purified enzyme is dissolved in 25 mM tris-buffer pH 7.8 supplemented with 0.1 mM glutathione (GSH) and stored at −80° C.
The buffer is used as background. Runs are performed in duplicates.
The reaction is stopped after 1 min by addition of double the reaction volume of a stop solution (MeOH:H2O:acetic acid 70:30:1).
After 15 fold dilution in PBS, LTC4 formation is detected with LTC4 HTRF kit (Cisbio, cat. No 64LC4PEC) and a fluorescence reader. Typically 6 μL of sample is mixed with 3 μL of each of the HTRF reagents d2 and k and analyzed as described in the kit manual.

Chain of Recombinant human LTC4 synthase (Q16873 whole entry): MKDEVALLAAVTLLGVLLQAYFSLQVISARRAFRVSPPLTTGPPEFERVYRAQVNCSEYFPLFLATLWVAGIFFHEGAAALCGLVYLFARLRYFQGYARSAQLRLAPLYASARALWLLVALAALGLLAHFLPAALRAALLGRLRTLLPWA

Row | Compound | IC50
1 | COc1cc(N(CC2CC2)c2ccc(C)c(C)c2)ccc1C(=O)C1CC1C(=O)O (stereo not drawn) [Example 50, 2-(4-((Cyclopropylmethyl)(3,4-dimethylphenyl)amino)-2-methoxybenzoyl)cyclopropanecarboxylic acid] | 0.075 µM
2 | COc1cc(N(CC2(C(F)(F)F)CC2)c2ccc(Cl)cc2)cnc1C(=O)C1CC1C(=O)O (stereo not drawn) [Example 3, 2-(5-((4-Chlorophenyl)((1-(trifluoromethyl)cyclopropyl)methyl)amino)-3-methoxypicolinoyl)cyclopropanecarboxylic acid] | 0.149 µM
3 | O=C(O)C1CC1C(=O)c1ccc(N(CC2CC2)c2ccc(Cl)cc2)cn1 (stereo not drawn) [Example 54, 2-(5-((4-Chlorophenyl)(cyclopropylmethyl)amino)picolinoyl)cyclopropanecarboxylic acid] | 0.424 µM
4 | COc1ccc(S(=O)(=O)NC(=O)C2CC2C(=O)c2ncc(N(CC3CC3)c3ccc(Cl)cc3)cc2OC)cc1 (stereo not drawn) [Example 41, 2-(5-((4-Chlorophenyl)(cyclopropylmethyl)amino)-3-methoxypicolinoyl)-N-((4-methoxyphenyl)sulfonyl)-cyclopropanecarboxamide] | 0.081 µM
5 | COc1cc(N(Cc2cccc(C(F)(F)F)c2Cl)CC2CC2)cnc1C(=O)C1CC1C(=O)O (stereo not drawn) [Example 22, 2-(5-((2-Chloro-3-(trifluoromethyl)benzyl)(cyclopropylmethyl)amino)-3-methoxypicolinoyl)cyclopropanecarboxylic acid] | 0.112 µM
6 | COc1cc(N(CC2CC2)c2ccc(Cl)cc2)cnc1C(=O)C1CC1C(=O)NS(=O)(=O)c1ccccc1F (stereo not drawn) [Example 43, 2-(5-((4-Chlorophenyl)(cyclopropylmethyl)amino)-3-methoxypicolinoyl)-N-((2-fluorophenyl)sulfonyl)-cyclopropanecarboxamide] | 0.074 µM
7 | COc1cc(N(Cc2ccc(F)c(F)c2F)CC2CC2)cnc1C(=O)C1CC1C(=O)O (stereo not drawn) [Example 29, 2-(5-((Cyclopropylmethyl)(2,3,4-trifluorobenzyl)amino)-3-methoxypicolinoyl)cyclopropanecarboxylic acid] | 0.37 µM
8 | COc1cc(N(Cc2c(F)ccc(C)c2F)CC2CC2)cnc1C(=O)C1CC1C(=O)O (stereo not drawn) [Example 32, 2-(5-((Cyclopropylmethyl)(2,6-difluoro-3-methylbenzyl)amino)-3-methoxypicolinoyl)cyclopropanecarboxylic acid] | 1.67 µM
9 | COc1cc(N(Cc2ccc(C)c(F)c2F)CC2CC2)cnc1C(=O)C1CC1C(=O)O (stereo not drawn) [Example 33, 2-(5-((Cyclopropylmethyl)(2,3-difluoro-4-methylbenzyl)amino)-3-methoxypicolinoyl)cyclopropanecarboxylic acid] | 0.185 µM
10 | COc1cc(N(Cc2ccc(F)cc2)CC2CC2)cnc1C(=O)C1CC1C(=O)O (stereo not drawn) [Example 19, 2-(5-((Cyclopropylmethyl)(4-fluorobenzyl)amino)-3-methoxypicolinoyl)cyclopropanecarboxylic acid] | 0.105 µM
11 | COc1cc(N(CC2CC2)c2ccc(C)c3ncccc23)ccc1C(=O)C1CC1C(=O)O (stereo not drawn) [Example 52, 2-(4-((Cyclopropylmethyl)(8-methylquinolin-5-yl)amino)-2-methoxybenzoyl)cyclopropanecarboxylic acid] | 0.359 µM
12 | COc1cc(N(CC2CC2)c2ccc(Cl)cc2)cnc1C(=O)C1CC1C(=O)NS(=O)(=O)c1ccc(OC(F)(F)F)cc1 (stereo not drawn) [Example 42, 2-(5-((4-Chlorophenyl)(cyclopropylmethyl)amino)-3-methoxypicolinoyl)-N-((4-(trifluoromethoxy)phenyl)-sulfonyl)cyclopropanecarboxamide] | 0.277 µM
13 | COc1cc(N(Cc2cccc(C(F)(F)F)c2C)CC2CC2)cnc1C(=O)C1CC1C(=O)O (stereo not drawn) [Example 20, 2-(5-((Cyclopropylmethyl)(2-methyl-3-(trifluoromethyl)benzyl)amino)-3-methoxypicolinoyl)cyclopropanecarboxylic acid] | 0.088 µM
14 | COc1cc(N(CC2CC2)c2ccc(C(F)(F)F)c3cccnc23)ccc1C(=O)C1CC1C(=O)O (stereo not drawn) [Example 53, 2-(4-((Cyclopropylmethyl)(5-(trifluoromethyl)quinolin-8-yl)amino)-2-methoxybenzoyl)cyclopropanecarboxylic acid] | 0.152 µM
15 | COc1cc(N(Cc2ccc(Cl)cc2)CC2CC2)ccc1C(=O)C1CC1C(=O)O (stereo not drawn) [Example 51, 2-(4-((4-Chlorobenzyl)(cyclopropylmethyl)amino)-2-methoxybenzoyl)cyclopropanecarboxylic acid] | 0.068 µM

Other lines, results leading:

Row | IC50 | Compound
16 | 0.019 µM | COc1nc(C(=O)C2CC2C(=O)O)ncc1N(CC1CC1)c1ccc(F)c2ccccc12 (stereo not drawn) [Example 58, 2-(5-((Cyclopropylmethyl)(4-fluoronaphthalen-1-yl)amino)-4-methoxypyrimidine-2-carbonyl)cyclopropanecarboxylic acid]
17 | 0.046 µM | COc1cc(N(CC2CC2)c2cccc3ccccc23)ccc1C(=O)C1CC1C(=O)O (stereo not drawn) [Example 48, 2-(4-((Cyclopropylmethyl)(naphthalen-1-yl)amino)-2-methoxybenzoyl)cyclopropanecarboxylic acid]
18 | 0.028 µM | COc1cc(N(CC2CC2)c2ccc3ccccc3c2)cnc1C(=O)C1CC1C(=O)O (stereo not drawn) [Example 12, 2-(5-((Cyclopropylmethyl)(naphthalen-2-yl)amino)-3-methoxypicolinoyl)cyclopropanecarboxylic acid]
19 | 0.047 µM | COc1cc(N(CC2(C)CC2)c2ccc3c(c2)CCC3)cnc1C(=O)C1CC1C(=O)O (stereo not drawn) [Example 6, 2-(5-((2,3-Dihydro-1H-inden-5-yl)((1-methylcyclopropyl)methyl)amino)-3-methoxypicolinoyl)cyclopropanecarboxylic acid]
20 | 0.019 µM | COc1cc(N(CC2CC2)c2ccc(C(F)(F)F)c3ccccc23)cnc1C(=O)C1CC1C(=O)O (stereo not drawn) [Example 34, 2-(5-((Cyclopropylmethyl)(4-(trifluoromethyl)naphthalen-1-yl)amino)-3-methoxypicolinoyl)cyclopropanecarboxylic acid]
21 | 0.05 µM | COc1nc(C(=O)C2CC2C(=O)O)ncc1N(CC1CC1)c1cccc2ccccc12 (stereo not drawn) [Example 57, 2-(5-((Cyclopropylmethyl)(naphthalen-1-yl)amino)-4-methoxypyrimidine-2-carbonyl)cyclopropanecarboxylic acid]
22 | 0.035 µM | COc1cc(N(CC2CC2)c2ccc(C)c3ccccc23)cnc1C(=O)C1CC1C(=O)O (stereo not drawn) [Example 11, 2-(5-((Cyclopropylmethyl)(4-methylnaphthalen-1-yl)amino)-3-methoxypicolinoyl)cyclopropanecarboxylic acid]
23 | 0.062 µM | COc1cc(N(CC2CC2)c2ccc(C)c3ccccc23)ccc1C(=O)C1CC1C(=O)O (stereo not drawn) [Example 45, 2-(4-((Cyclopropylmethyl)(4-methylnaphthalen-1-yl)amino)-2-methoxybenzoyl)cyclopropanecarboxylic acid]
24 | 0.034 µM | COc1cc(N(Cc2ccc3ccccc3c2)CC2CC2)cnc1C(=O)C1CC1C(=O)O (stereo not drawn) [Example 17, 2-(5-((Cyclopropylmethyl)(naphthalen-2-ylmethyl)amino)-3-methoxypicolinoyl)cyclopropanecarboxylic acid]
25 | 0.065 µM | COc1cc(N(CC2CC2)c2ccc(Cl)cc2)ccc1C(=O)C1CC1C(=O)O (stereo not drawn) [Example 49, 2-(4-((4-Chlorophenyl)(cyclopropylmethyl)amino)-2-methoxybenzoyl)cyclopropanecarboxylic acid]
26 | 0.024 µM | COc1cc(N(CC2CC2)c2cccc3ccccc23)cnc1C(=O)C1CC1C(=O)O (stereo not drawn) [Example 9, 2-(5-((Cyclopropylmethyl)(naphthalen-1-yl)amino)-3-methoxypicolinoyl)cyclopropanecarboxylic acid]
27 | 0.039 µM | COc1cc(N(CC2CC2)c2ccc(F)c3ccccc23)cnc1C(=O)C1CC1c1nnn[nH]1 (stereo not drawn) [Example 61, (2-(1H-Tetrazol-5-yl)cyclopropyl)(5-((cyclopropylmethyl)(4-fluoronaphthalen-1-yl)amino)-3-methoxypyridin-2-yl)methanone]
28 | 0.026 µM | COc1cc(N(CC2CC2)c2ccc(F)c3ccccc23)ccc1C(=O)C1CC1C(=O)O (stereo not drawn) [Example 46, 2-(4-((Cyclopropylmethyl)(4-fluoronaphthalen-1-yl)amino)-2-methoxybenzoyl)cyclopropanecarboxylic acid]
29 | 0.031 µM | COc1cc(N(CC2CC2)c2ccc3cccc4c3c2CC4)cnc1C(=O)C1CC1C(=O)O (stereo not drawn) [Example 38, 2-(5-((Cyclopropylmethyl)(1,2-dihydroacenaphthylen-3-yl)amino)-3-methoxypicolinoyl)cyclopropanecarboxylic acid]
30 | 0.067 µM | COc1cc(N(Cc2cccc(C)c2C)CC2CC2)cnc1C(=O)C1CC1C(=O)O (stereo not drawn) [Example 28, 2-(5-((Cyclopropylmethyl)(2,3-dimethylbenzyl)amino)-3-methoxypicolinoyl)cyclopropanecarboxylic acid]
31 | 0.025 µM | COc1cc(N(CC2CC2)c2cccc3c(C(F)(F)F)cccc23)cnc1C(=O)C1CC1C(=O)O (stereo not drawn) [Example 37, 2-(5-((Cyclopropylmethyl)(5-(trifluoromethyl)naphthalen-1-yl)amino)-3-methoxypicolinoyl)cyclopropanecarboxylic acid]
32 | 0.039 µM | COc1cc(N(Cc2cccc(Cl)c2)CC2CC2)cnc1C(=O)C1CC1C(=O)O (stereo not drawn) [Example 18, 2-(5-((3-Chlorobenzyl)(cyclopropylmethyl)amino)-3-methoxypicolinoyl)cyclopropanecarboxylic acid]
33 | 0.038 µM | COc1cc(N(CC2(C)CC2)c2ccc(Cl)cc2)cnc1C(=O)C1CC1C(=O)O (stereo not drawn) [Example 5, 2-(5-((4-Chlorophenyl)((1-methylcyclopropyl)methyl)amino)-3-methoxypicolinoyl)cyclopropanecarboxylic acid]

Reference: patent US20160326143A1, “COMPOUNDS AND USES” (AstraZeneca AB, priority 2015, published 2016)
